Test results from patent US10000791B2, “Measurement method for human pancreatic lipase activity” (ASAHI KASEI PHARMA CORPORATION, priority 2013, dated 2018).

Test system: human pancreatic lipase
Assay: lipase activity measured in control, normal and heparin-administered samples with each reagent (1,2-dioleoyl glycerol, UV method; Liquitech Lipase Color II for verification)
Assay type: biochemical
Parameters: lipase activity relative to (1) comparative example NaDCA (Table 1): concentration or dose not given beside the values
Conditions: for lipase activity (Table 1): NaDCA pH 8.15, other bile salts pH 7.0; for lipase activity (Table 2): comparative example pH 8.15, present example pH 7.1, bile acid 40 mmol/L in R-1

C[C@H](CCC(=O)NCC(=O)[O-])[C@H]1CC[C@H]2[C@@H]3[C@H](O)C[C@@H]4C[C@H](O)CC[C@]4(C)[C@H]3CC[C@]12C.[Na+] [NaGCDCA, sodium glycochenodeoxycholate]
sensitivity at pH 7.95 compared with pH 7.0 (NaGCDCA 40 mmol/L in R-1): about 40% | lipase activity (Table 1) (Normal sample 1): 38.1 U/L | lipase activity relative to (1) comparative example NaDCA (Table 1) (Normal sample 1, pH 7.0): 97.5% | lipase activity (Table 1) (Normal sample 2): 75.6 U/L | lipase activity relative to (1) comparative example NaDCA (Table 1) (Normal sample 2, pH 7.0): 79.5% | lipase activity (Table 1) (Normal sample 3): 41.2 U/L | lipase activity relative to (1) comparative example NaDCA (Table 1) (Normal sample 3, pH 7.0): 88.4% | lipase activity (Table 1) (Normal sample 4): 31.7 U/L | lipase activity relative to (1) comparative example NaDCA (Table 1) (Normal sample 4, pH 7.0): 73.0% | lipase activity (Table 1) (Normal sample 5): 28.8 U/L | lipase activity relative to (1) comparative example NaDCA (Table 1) (Normal sample 5, pH 7.0): 70.8% | lipase activity (Table 1) (sample Heparin 1): 30.8 U/L | lipase activity (Table 2) (sample Heparin 1): 47.8 U/L | lipase activity relative to (1) comparative example NaDCA (Table 1) (sample Heparin 1, pH 7.0): 40.1% | lipase activity (Table 1) (sample Heparin 2): 41.3 U/L | lipase activity (Table 2) (sample Heparin 2): 25.9 U/L | lipase activity relative to (1) comparative example NaDCA (Table 1) (sample Heparin 2, pH 7.0): 47.6% | lipase activity (Table 1) (sample Heparin 3): 29.8 U/L | lipase activity (Table 2) (sample Heparin 3): 44.0 U/L | lipase activity relative to (1) comparative example NaDCA (Table 1) (sample Heparin 3, pH 7.0): 26.4% | lipase activity (Table 1) (sample Heparin 4): 31.6 U/L | lipase activity relative to (1) comparative example NaDCA (Table 1) (sample Heparin 4, pH 7.0): 31.2% | lipase activity (Table 1) (sample Heparin 5): 17.8 U/L | lipase activity relative to (1) comparative example NaDCA (Table 1) (sample Heparin 5, pH 7.0): 26.0% | lipase activity (Table 1) (sample Heparin 6): 22.5 U/L | lipase activity relative to (1) comparative example NaDCA (Table 1) (sample Heparin 6, pH 7.0): 32.5% | lipase activity (Table 1) (sample Heparin 7): 51.0 U/L | lipase activity relative to (1) comparative example NaDCA (Table 1) (sample Heparin 7, pH 7.0): 36.9% | lipase activity (Table 1) (sample Heparin 8): 36.6 U/L | lipase activity relative to (1) comparative example NaDCA (Table 1) (sample Heparin 8, pH 7.0): 29.0% | lipase activity (Table 1) (sample Heparin 9): 75.4 U/L | lipase activity relative to (1) comparative example NaDCA (Table 1) (sample Heparin 9, pH 7.0): 44.7% | lipase activity (Table 5) (sample Heparin 31, pH 7.0): 40.7 U/L | lipase activity (Table 5) (sample Heparin 31, pH 7.95): 60.7 U/L | lipase activity (Table 5) (sample Heparin 32, pH 7.0): 32.7 U/L | lipase activity (Table 5) (sample Heparin 32, pH 7.95): 77.0 U/L | lipase activity (Table 1) (sample PRECINORM): 42.3 U/L | lipase activity (Table 5) (sample PRECINORM, pH 7.0): 42.3 U/L | lipase activity relative to (1) comparative example NaDCA (Table 1) (sample PRECINORM, pH 7.0): 82.9% | lipase activity (Table 5) (sample PRECINORM, pH 7.95): 24.0 U/L | lipase activity (Table 1) (sample PRECIPATH): 109.9 U/L | lipase activity (Table 5) (sample PRECIPATH, pH 7.0): 109.9 U/L | lipase activity relative to (1) comparative example NaDCA (Table 1) (sample PRECIPATH, pH 7.0): 85.9% | lipase activity (Table 5) (sample PRECIPATH, pH 7.95): 57.3 U/L | lipase activity (Table 5) (sample Pool 1, pH 7.0): 36.9 U/L | lipase activity (Table 5) (sample Pool 1, pH 7.95): 19.4 U/L | lipase activity (Table 5) (sample Pool 2, pH 7.0): 17.5 U/L | lipase activity (Table 5) (sample Pool 2, pH 7.95): 15.4 U/L | lipase activity (Table 5) (sample Seraclear LP, pH 7.0): 17.5 U/L | lipase activity (Table 5) (sample Seraclear LP, pH 7.95): 7.5 U/L
